Test results from patent publication US20050288369A1, “Novel n-hydroxy thiourea, urea and amide compounds and the pharmaceutical compositions comprising the same” (priority 2002, published 2005).

Legend:
[1] = target: T1, vanilloid receptor-1 (VR1) (Rattus norvegicus, UniProt O35433); experiment: [3H]RTX competition binding assay, VR1-expressing CHO cells; conditions: displacement of bound [3H]RTX; mean±SEM, 3 experiments
T1 construct: expressed in transfected cells; host or cells: Chinese Hamster Ovary cells (CHO, ATCC CCL-61), Tet-off inducible expression
T1 sequence (O35433 whole entry): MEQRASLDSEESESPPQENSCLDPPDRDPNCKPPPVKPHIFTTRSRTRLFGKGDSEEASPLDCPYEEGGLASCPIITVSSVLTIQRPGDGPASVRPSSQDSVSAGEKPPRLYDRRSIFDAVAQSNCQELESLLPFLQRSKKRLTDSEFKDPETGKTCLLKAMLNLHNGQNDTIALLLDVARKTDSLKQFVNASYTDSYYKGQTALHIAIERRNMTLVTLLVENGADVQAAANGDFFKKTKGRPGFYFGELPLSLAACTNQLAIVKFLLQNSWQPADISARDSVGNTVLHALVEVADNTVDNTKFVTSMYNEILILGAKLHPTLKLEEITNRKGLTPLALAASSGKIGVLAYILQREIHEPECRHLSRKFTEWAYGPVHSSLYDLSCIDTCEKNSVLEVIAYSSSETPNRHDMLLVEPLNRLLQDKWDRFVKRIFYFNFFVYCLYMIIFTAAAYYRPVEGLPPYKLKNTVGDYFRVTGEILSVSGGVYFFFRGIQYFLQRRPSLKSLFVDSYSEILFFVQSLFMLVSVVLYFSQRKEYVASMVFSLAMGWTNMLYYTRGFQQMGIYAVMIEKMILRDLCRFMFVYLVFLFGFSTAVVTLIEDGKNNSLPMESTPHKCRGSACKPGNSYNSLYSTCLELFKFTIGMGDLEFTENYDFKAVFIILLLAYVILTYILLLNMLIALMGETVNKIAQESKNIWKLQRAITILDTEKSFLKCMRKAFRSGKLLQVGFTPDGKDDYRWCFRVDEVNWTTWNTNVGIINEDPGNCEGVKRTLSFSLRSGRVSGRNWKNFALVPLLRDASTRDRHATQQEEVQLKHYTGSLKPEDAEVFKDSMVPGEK
Protocol: The binding affinity activity of the target compounds for vanilloid receptor-1 was measured by an in vitro receptor binding affinity assay. In the receptor binding assay, the compounds were evaluated for their ability to displace bound [^3H]RTX from the receptor. The results are expressed in terms of Ki values (mean±SEM, 3 experiments) which represent the concentration of the non-radioactive ligand that displaces half of the bound labeled RTX.
The VR receptor binding affinity activity of the inventive compounds was measured by using Chinese Hamster Ovary (CHO, ATCC, No. CCL-61) cell whose cDNA of VR1 (pUHG102 VR1 plasmid) was transfected, which can control the expression of VR1 according to the presence of tetracycline and Tetracycline on/off system (pTet off regulatory plasmid, Clontech. Inc., USA) that the expression of VR1 is induced by removing tetracycline from the medium. […] The cells were cultured after removing tetracycline prior to 48 hours. The tetracycline free culture medium was seeded at the bottom of T75 flask, incubated to the extent that its density reaches at 90%, and washed once with PBS buffer solution. The cells were collected by using saline solution containing 5 mM EDTA and subjected to centrifugation slightly to obtain precipitates, further, which had been kept at the temperature of −20° C. before use.
Experiments were designed to assess inhibition of specific [^3H]RTX binding to membranes by non-radioactive compounds. The binding assay mixture containing [^3H]RTX ([…]), various concentrations of competitive binding substances, 0.25 mg/ml of BSA (Cohn fraction V), 5×10^4 ˜5×10^5 numbers of VR1 and the expression cell, was admixed with saline solution containing 450 μl of Ca^2+ and Mg^2+ and […] of BSA. Non-specific binding assay was measured after mixing 100 nM of non-radioactive RTX thereto. The reaction mixture was treated for 60 min at 37° C. and the reaction was quenched by cooling over ice. RTX bound to the membrane of VR1 was subjected to centrifugation with maximum velocity for 15 minutes to precipitate its membrane residue, which results in separating from non-binding RTX. The tips of tube containing above precipitate was cut off and the amount of bound radioisotope was determined by scintillation counter (LS6500, Beckman-Coulter, USA). The measurement of binding was determined in triplicate in each experiment, and each experiment was repeated at least two times. Binding data were analyzed by fitting to the Hill equation and the Ki (equilibrium binding parameter) index, the Bmax (maximum binding parameter) index, and the cooperativity index etc., were determined by using origin 6.0 program (Origin, MicroCal Co., USA).
An initial compound was dissolved in DMSO (dimethyl sulfoxide) and diluted with saline solution containing Ca^2+ and […], and […] of BSA.

VR1 [2] = target: T2, VR1 (Rattus norvegicus, UniProt O35433); experiment: 45Ca influx test in CHO cells expressing VR1, antagonistic activity against 50 nM capsaicin; assay type: cell-based; conditions: 45Ca uptake stimulated with 50 nM capsaicin
T2 construct: expressed in transfected cells; host or cells: Chinese Hamster Ovary cells (CHO, ATCC CCL-61), Tet-off inducible expression
T2 sequence (O35433 whole entry): as above
Protocol: (§1) The ^45Ca Influx test by using CHO cells of the inventive compounds was measured by using Chinese Hamster Ovary (CHO, ATCC, No. CCL-61) cell whose cDNA of VR1 (pUHG102 VR1 plasmid) was transfected, which can control the expression of VR1 according to the presence of tetracycline and Tetracycline on/off system (pTet off regulatory plasmid, Clontech. Inc., USA) that the expression of VR1 is induced by removing tetracycline from the medium.
(§2) The CHO cells were poured onto 24 well plates to the extent that its density reaches at 30% and incubated for 24 hours at 37° C. The culture medium was exchanged to tetracycline free medium to induce the expression of VR1 and tested after 36 hours.
(§3) Together with 0.25 mg/ml BSA (Sigma A2153, USA), 1 Ci/ml ^45Ca(5-30 Ci/g used, ICN. Co., 62005 RT, U.S.A.), the test samples with increasing concentrations were added to each well. At the quenching moment of the incubation with ^45Ca, the cultured cells were removed from the medium, washed three times with cool PBS buffer solution containing 1.8 mM CaCl2 and 400 μl of RIPA buffer solution (50 mM Tris pH 7.4; 150 mM sodium chloride; 0.1% SDS; 1% sodium deoxycholate), was added in each well to homogenize the cells. The plates were stirred for 20 minutes slowly and 300 μl of cell lysate was transferred to scintillation vials from each wells. The radioactivity was determined by scintillation counter.
(§4) The data were assessed by determining four wells per each data point in each experiment and analyzed in computer by being transformed into Hill equation. The experiments were determined in triplicate in each sample comprising inventive compounds and control groups.
In order to determine the antagonistic activity, ^45Ca^2+-uptake stimulating-mixture was added with 50 nM capsaicin and the antagonistic activity was determined by the method for the agonistic activity. In case that 10 μM a certain compound cannot change the capsaicin-inducing activity, the compound shall be regarded as an […].

Male ICR mice = experiment: Acetic acid-induced writhing test; assay type: in vivo; conditions: for ED50: Mus musculus, ip, i.p. 30 mins before 1.2% acetic acid i.p., 50% reduction of the number of writhes; for analgesic effect compared with thiourea compounds JYL-827 and 1433: writhing test
Protocol: The acetic acid-induced writhing test for testing the analgesic activity of inventive compounds prepared from above Examples was performed by the procedure described in the literature (Lee, J. W., Bioorganic & Medicinal Chemistry, pp 1713-1720, 2001).
Male ICR mice having its mean body weight of 25 g (CD-1; Biogenomics Co. Korea) were reared in lighting controlled environment (12 hrs on/12 hrs off) maintaining with temperatures at 22±2° C. and humidity at 50±5% and allowed to eat a diet and to drink tap water ad lib.
Mice were fasted overnight prior to testing and adopted to the environment.
0.3 ml of acetic acid solution (1.2%) was administrated in the mice intraperitoneally and then the mice were put into the transparent acryl box (15×15×15 cm). 5 minutes later, the number of abdominal constrictions was counted for 20 minutes. Each group consisting of ten mice was pretreated with test compounds or solvent (0.2 ml, i.p.) 30 mins before the injection of acetic acid. Test compounds were dissolved in the mixture of ethanol/Tween-80/saline ([…]) or cremophor EL/DMSO/d-water ([…]).
Analgesic activity of each drug was determined at several different concentrations.
The index of analgesic activity (eff) was defined as below Empirical formula 1. Analgesic activity (eff)=100−{(No. of abdominal constriction of test group/No. of abdominal constriction of control group)×100} [Empirical formula 1]
Analgesic activity was expressed as the reduction in the number of abdominal constrictions, of control animals (vehicle-pretreated mice) and animals pretreated with test compounds.

VR1 [3] = target: T2, VR1; experiment: 45Ca influx test in CHO cells expressing VR1, agonistic activity; assay type: cell-based; conditions: 45Ca uptake
Protocol: The ^45Ca Influx test by using CHO cells expressing VR1 was performed by the procedure described in the literature (Lee, J. W., Bioorganic & Medicinal Chemistry, pp 1713-1720, 2001).
as §1, §2
as §3, with “In radioactive ^45Ca uptake experiment, The cells were incubated in […] of DMEM medium (Dulbecco's modified Eagles medium: Gibco-BRL, 31600-083) containing free of serum and 1.8 mM CaCl2 for 10 minutes at 37*C. Together” for “Together”
as §4

Structure (SMILES)	Ki [1] [nM]	IC50 (VR1 [2]) [nM]	melting point [°C]	EC50 (VR1 [3]) [nM]	ED50 (Male ICR mice) [µg/kg]	analgesic effect compared with thiourea compounds JYL-827 and 1433 (Male ICR mice)	analgesic effect, fold stronger than that of Ketorolac (Male ICR mice; ratio of writhing test ED50 values)
CC(C)(C)c1ccc(CN(O)C(=S)NCc2ccc(NS(C)(=O)=O)cc2)cc1 [Compound 28, N-(4-tert-butylbenzyl)-N-hydroxy-N-[4-(methylsulfonylamino)benzyl]thiourea]	1090	470	137		1560		
COc1cc(CNC(=S)N(O)Cc2ccc(C(C)(C)C)cc2)ccc1NS(C)(=O)=O [Compound 29, N-(4-tert-butylbenzyl)-N-hydroxy-N-[3-methoxy-4-(methylsulfonylamino)benzyl]thiourea]			112.5 to 115	2010	0.103		
CC(C)(C)c1ccc(CN(O)C(=O)Cc2ccc(NS(C)(=O)=O)cc2)cc1 [Compound 45, N-(4-tert-butylbenzyl)-N-hydroxy-[4-(methylsulfonylamino)phenyl] acetamide]	6380	6590	161 to 163	3500			
CC(C)(C)c1ccc(CNC(=S)N(O)Cc2ccc(NS(C)(=O)=O)cc2)cc1 [Compound 60, N-(4-tert-butylbenzyl)-N-hydroxy-N-[4-(methylsulfonylamino)benzyl]thiourea]	4260	465	124				
CC(C)(C)c1ccc(CNC(=O)N(O)Cc2ccc(NS(C)(=O)=O)cc2)cc1 [Compound 62, N-(4-tert-butylbenzyl)-N-hydroxy-N-[4-(methylsulfonylamino)benzyl]urea]			125	1060			

More lines, main results first:

Ki [1] [nM]	IC50 (VR1 [2]) [nM]	melting point [°C]	EC50 (VR1 [3]) [nM]	Structure (SMILES)	ED50 (Male ICR mice) [µg/kg]	analgesic effect compared with thiourea compounds JYL-827 and 1433 (Male ICR mice)	analgesic effect, fold stronger than that of Ketorolac (Male ICR mice; ratio of writhing test ED50 values)
802		124 to 126	> 7060	CC(C)(C)c1ccc(CN(O)C(=S)NCc2ccc(NS(C)(=O)=O)c(F)c2)cc1 [Compound 30, N-(4-tert-butylbenzyl)-N-hydroxy-N-[3-fluoro-4-(methylsulfonylamino)benzyl]thiourea]	1.07		
1040	212		1230	Cc1ccc(CC(COC(=O)C(C)(C)C)CN(O)C(=S)NCc2ccc(NS(C)(=O)=O)cc2)cc1C (centres unmarked) [Compound 35, N-[2-(3,4-dimethylbenzyl)-3-(pivaloyloxy)propyl]-N-hydroxy-N-[4-(methylsulfonylamino)benzyl]thiourea]	2.6	stronger analgesic effect	
212	93.7			Cc1ccc(CC(COC(=O)C(C)(C)C)CN(O)C(=S)NCc2ccc(NS(C)(=O)=O)c(F)c2)cc1C (centres unmarked) [Compound 37, N-[2-(3,4-dimethylbenzyl)-3-(pivaloyloxy)propyl]-N-hydroxy-N-[3-fluoro-4-(methylsulfonylamino)benzyl]thiourea]		stronger analgesic effect	43,000 fold
